From ChEMBL document CHEMBL1201862, “PubChem BioAssay data set” (2004)
The source made the active and inactive calls.

Tests used:
[1] = molecular target: Mitogen-activated protein kinase 10 (Homo sapiens, UniProt P53779); experiment: Dose response biochemical screening assay for inhibitors of c-Jun N-Terminal Kinase 3 (JNK3). [Related pubchem assays: 746 ]
[2] = molecular target: T1, Heat shock protein HSP 90-alpha (Homo sapiens, UniProt P07900); format: functional, organism-based
Caspase-6 = molecular target: T2, Caspase-6 (Homo sapiens, UniProt P55212); experiment: inhibition of CASP6 peptide cleavage – biochemical, VEID-R110 fluorescence, cherry-pick, dose response (AID 720632)
T2 sequence (P55212 whole entry): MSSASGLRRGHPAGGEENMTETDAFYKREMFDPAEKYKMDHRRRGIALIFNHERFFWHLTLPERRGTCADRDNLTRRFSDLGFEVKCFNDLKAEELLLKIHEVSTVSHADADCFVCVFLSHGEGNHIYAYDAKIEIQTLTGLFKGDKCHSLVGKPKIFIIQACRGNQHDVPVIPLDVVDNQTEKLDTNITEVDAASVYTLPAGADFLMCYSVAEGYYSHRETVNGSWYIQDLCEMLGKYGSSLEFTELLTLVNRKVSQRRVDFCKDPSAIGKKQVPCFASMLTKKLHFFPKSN

NS3 = NS3 (Hepatitis C virus, UniProt A3EZJ3); experiment: PubChem AID 2173; set-up: species or system Hepacivirus hominis
[3] = molecular target: T3, Endoribonuclease toxin MazF (Escherichia coli K-12, UniProt P0AE70); experiment: substrate-only fluorescence increase artefacts – biochemical, single-stranded RNase substrate, counter-screen for MazEF activator project, dose response (AID 588502); format: functional
T3 sequence (P0AE70 whole entry): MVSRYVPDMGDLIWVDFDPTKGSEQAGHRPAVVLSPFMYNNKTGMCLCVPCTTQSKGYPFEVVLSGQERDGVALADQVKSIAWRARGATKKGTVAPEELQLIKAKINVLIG

[4] = molecular target: Glucose-6-phosphate 1-dehydrogenase (Homo sapiens, UniProt P11413); experiment: inhibition of Homo sapiens G6PD, dose series – biochemical, fluorescence, selectivity assay for P. falciparum G6PD inhibitor project, dose response (AID 504792); format: functional
[5] = molecular target: T4, Heat shock factor protein 1 (Mus musculus, UniProt P38532); experiment: enhancement of HSF1-driven luciferase signal – cell-based, NIH3T3, luminescence, dose retest, confirmation (AID 435004); format: functional;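 further: stress induced by proteasome inhibitor MG132 added 30 min after compound; luciferase reporter driven by HSF1 response element in NIH3T3 cells; actives raise luminescence as potentiators of the MG132 stress response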
T4 sequence (P38532 whole entry): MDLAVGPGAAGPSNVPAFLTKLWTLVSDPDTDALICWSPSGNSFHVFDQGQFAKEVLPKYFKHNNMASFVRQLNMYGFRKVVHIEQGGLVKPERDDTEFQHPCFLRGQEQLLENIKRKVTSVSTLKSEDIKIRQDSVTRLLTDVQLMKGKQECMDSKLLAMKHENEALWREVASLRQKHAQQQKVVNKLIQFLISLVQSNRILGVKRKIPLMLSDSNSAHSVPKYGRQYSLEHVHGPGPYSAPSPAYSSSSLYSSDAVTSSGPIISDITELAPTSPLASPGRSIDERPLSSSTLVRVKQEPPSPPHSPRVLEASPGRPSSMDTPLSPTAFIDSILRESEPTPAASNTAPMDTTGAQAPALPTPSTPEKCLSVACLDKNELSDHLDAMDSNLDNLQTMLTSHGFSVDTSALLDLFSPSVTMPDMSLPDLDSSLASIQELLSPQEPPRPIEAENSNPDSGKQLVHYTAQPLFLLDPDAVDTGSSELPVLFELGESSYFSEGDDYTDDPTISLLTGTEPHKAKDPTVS

[6] = molecular target: T3, Endoribonuclease toxin MazF; experiment: activation of MazEF endoribonuclease cleavage – biochemical, fluorescence, single-stranded RNA substrate, uHTS hits, dose response (AID 588481); format: functional
[7] = molecular target: T1, Heat shock protein HSP 90-alpha; experiment: Luminescence-based dose response biochemical high throughput screening assay for inhibitors of the Heat Shock Protein 90 (HSP90). [Related pubchem assays: 1831 (Summary AID.), 1846 (Confirmation screen.), 1789 (Primary screen.)]
[8] = viability loss in Vero cells – cytotoxicity control for Vif-APOBEC3G degradation inhibitor project, dose response (AID 1117358); format: functional; details: Vero
Protein Tat = Protein Tat (Human immunodeficiency virus type 1 group M subtype B (isolate HXB2)(HIV-1), UniProt P04608); format: functional;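 further: tat binding to TAR RNA read out by fluorescence polarization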
Large T antigen = Large T antigen (Simian virus 40, UniProt P03070); format: functional, Betapolyomavirus macacae;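 further: Confirmatory-stage PubChem screen for compounds that inhibit SV40 T antigen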
Cytochrome P450 2D6 = Cytochrome P450 2D6 (Homo sapiens, UniProt P10635);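 further: CYP2D6 member of a cytochrome P450 panel assay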
[9] = molecular target: T5, Voltage-gated N-type calcium channel alpha-1B subunit/Amyloid beta A4 precursor protein-binding family A member 1 (Homo sapiens, UniProt Q00975+Q02410); experiment: disruptors of Mint-PDZ/N-type channel peptide interaction – biochemical, HTRF, SAR follow-up (AID 2489); format: functional
[10] = molecular target: T5, Voltage-gated N-type calcium channel alpha-1B subunit/Amyloid beta A4 precursor protein-binding family A member 1; experiment: disruptors of Mint-PDZ/N-type channel peptide interaction – biochemical, HTRF, set 2, SAR follow-up (AID 434980); format: functional
[11] = cytotoxicity toward Colo320 cells – cell-based, CellTiter-Glo luminescence, IC50, dose response (AID 1117334); format: functional; details: COLO 320
[12] = Reduced DLD-1 viability, concentration-response, CellTiter-Glo luminescence (AID 1117352); format: functional
[13] = RKO cell viability reduction, dose response, CellTiter-Glo luminescence (AID 1117322); format: functional
[14] = rise of 2N DNA cells, HeLa – IC50, dose response (AID 1117349); format: functional, cell-based
[15] = CellTiter-Glo luminescence survival assay, SW480 colon tumor line, concentration-response curve, half-maximal inhibitory concentration (AID 1117338); format: functional
[16] = cytotoxicity toward HT-29 cells – cell-based, CellTiter-Glo luminescence, IC50, dose response (AID 1117330); format: functional
[17] = cytotoxicity toward HCT116 cells – cell-based, CellTiter-Glo luminescence, IC50, dose response (AID 1117332); format: functional; details: HCT-116
[18] = rise of 4N DNA cells, HeLa – IC50, dose response (AID 1117351); format: functional, cell-based

T5 sequence (Q00975 whole entry): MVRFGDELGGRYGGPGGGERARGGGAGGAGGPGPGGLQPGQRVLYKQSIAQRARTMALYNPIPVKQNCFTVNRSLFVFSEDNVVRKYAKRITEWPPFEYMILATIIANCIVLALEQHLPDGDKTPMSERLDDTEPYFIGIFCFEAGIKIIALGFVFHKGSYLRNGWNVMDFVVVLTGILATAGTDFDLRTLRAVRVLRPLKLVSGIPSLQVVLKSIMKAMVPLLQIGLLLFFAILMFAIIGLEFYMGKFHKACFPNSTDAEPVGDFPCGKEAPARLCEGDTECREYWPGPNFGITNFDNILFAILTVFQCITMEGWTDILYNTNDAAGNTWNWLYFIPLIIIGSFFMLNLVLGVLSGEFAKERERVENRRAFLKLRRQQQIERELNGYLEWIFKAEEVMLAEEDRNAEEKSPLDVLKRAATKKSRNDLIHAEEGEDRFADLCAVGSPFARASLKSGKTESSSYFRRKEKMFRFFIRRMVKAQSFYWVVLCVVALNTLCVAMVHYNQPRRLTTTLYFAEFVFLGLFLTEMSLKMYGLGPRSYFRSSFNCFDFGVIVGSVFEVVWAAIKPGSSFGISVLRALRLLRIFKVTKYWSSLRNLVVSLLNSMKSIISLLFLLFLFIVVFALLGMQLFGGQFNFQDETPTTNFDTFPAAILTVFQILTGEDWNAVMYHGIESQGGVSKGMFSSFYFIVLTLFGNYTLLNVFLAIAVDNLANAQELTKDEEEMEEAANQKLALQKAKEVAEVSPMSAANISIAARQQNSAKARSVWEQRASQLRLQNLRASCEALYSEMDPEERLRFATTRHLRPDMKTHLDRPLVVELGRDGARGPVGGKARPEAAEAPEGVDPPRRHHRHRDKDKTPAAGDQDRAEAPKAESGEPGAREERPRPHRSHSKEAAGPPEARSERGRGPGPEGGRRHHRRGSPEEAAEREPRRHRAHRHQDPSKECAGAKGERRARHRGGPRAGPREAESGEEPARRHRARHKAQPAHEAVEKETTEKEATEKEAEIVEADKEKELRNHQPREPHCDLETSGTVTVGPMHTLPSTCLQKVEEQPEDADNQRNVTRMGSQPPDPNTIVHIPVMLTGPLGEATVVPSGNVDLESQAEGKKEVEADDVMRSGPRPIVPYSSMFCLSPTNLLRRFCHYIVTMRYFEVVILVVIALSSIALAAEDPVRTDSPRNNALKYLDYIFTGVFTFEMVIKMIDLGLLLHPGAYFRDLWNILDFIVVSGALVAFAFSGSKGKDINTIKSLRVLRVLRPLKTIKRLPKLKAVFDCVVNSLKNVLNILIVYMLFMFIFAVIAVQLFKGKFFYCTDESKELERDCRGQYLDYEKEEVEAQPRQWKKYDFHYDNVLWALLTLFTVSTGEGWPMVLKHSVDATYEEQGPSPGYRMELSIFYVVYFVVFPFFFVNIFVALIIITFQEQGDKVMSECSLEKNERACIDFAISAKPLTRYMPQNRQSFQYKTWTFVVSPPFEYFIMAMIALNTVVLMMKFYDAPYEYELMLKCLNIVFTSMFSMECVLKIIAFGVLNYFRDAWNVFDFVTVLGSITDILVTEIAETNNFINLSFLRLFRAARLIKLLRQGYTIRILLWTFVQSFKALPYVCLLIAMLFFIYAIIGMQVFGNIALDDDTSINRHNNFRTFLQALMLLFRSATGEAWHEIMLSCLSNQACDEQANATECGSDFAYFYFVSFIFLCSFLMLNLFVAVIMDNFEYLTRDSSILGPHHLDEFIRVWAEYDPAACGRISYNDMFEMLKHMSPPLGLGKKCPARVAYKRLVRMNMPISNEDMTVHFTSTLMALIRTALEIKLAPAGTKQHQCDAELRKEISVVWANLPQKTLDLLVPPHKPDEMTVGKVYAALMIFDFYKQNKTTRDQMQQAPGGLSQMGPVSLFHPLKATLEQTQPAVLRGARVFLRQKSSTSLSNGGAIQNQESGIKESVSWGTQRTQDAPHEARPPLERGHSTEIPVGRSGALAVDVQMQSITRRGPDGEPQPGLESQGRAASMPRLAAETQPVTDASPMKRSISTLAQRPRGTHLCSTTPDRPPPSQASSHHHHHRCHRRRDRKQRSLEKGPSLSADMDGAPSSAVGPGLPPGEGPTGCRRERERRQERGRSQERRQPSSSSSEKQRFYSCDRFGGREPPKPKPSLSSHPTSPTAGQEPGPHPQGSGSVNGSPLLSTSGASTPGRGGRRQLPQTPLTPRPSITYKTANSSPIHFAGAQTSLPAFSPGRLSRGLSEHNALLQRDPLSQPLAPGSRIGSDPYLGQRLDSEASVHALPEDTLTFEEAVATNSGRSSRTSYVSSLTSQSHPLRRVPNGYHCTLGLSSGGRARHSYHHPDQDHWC
T5 sequence (Q02410 whole entry): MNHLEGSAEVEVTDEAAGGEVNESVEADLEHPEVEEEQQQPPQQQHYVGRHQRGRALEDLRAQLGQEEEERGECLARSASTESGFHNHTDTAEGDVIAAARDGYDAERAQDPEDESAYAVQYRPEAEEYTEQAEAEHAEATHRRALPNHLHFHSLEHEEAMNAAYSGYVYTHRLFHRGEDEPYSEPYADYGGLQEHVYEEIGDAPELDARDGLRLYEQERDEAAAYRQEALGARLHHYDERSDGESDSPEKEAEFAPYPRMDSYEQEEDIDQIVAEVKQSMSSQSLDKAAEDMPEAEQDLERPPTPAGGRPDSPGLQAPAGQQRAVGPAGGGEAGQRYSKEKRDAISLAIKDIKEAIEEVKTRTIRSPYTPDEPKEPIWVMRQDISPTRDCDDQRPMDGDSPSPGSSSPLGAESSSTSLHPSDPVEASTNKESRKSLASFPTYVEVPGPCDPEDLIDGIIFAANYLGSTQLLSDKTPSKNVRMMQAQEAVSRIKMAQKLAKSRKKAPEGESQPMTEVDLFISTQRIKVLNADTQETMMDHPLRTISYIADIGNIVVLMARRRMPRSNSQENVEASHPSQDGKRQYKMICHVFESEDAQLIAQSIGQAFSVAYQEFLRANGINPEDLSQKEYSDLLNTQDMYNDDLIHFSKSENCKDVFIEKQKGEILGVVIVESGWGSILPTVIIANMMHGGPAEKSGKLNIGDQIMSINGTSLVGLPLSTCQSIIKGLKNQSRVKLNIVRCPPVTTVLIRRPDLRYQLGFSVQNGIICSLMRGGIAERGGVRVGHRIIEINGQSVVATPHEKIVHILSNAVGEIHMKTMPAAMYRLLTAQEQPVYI
Sequence of NS3 (A3EZJ3 whole entry): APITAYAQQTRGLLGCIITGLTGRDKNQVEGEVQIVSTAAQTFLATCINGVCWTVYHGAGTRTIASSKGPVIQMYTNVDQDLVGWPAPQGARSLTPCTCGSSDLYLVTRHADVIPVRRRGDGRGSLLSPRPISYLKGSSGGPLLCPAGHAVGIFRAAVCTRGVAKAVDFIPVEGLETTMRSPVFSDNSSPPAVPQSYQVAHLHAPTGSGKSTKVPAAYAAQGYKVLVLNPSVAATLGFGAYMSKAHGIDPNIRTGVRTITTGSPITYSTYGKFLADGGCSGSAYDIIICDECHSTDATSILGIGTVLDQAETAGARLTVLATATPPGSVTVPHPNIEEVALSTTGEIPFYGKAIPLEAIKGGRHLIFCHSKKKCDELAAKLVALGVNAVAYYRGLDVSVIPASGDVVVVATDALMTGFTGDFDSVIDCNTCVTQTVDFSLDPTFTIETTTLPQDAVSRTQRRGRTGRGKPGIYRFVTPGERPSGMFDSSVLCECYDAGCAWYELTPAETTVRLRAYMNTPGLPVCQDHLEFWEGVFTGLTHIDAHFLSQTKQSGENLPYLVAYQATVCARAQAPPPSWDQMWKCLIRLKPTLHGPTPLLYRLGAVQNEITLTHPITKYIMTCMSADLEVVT
Sequence of Mitogen-activated protein kinase 10 (P53779 whole entry): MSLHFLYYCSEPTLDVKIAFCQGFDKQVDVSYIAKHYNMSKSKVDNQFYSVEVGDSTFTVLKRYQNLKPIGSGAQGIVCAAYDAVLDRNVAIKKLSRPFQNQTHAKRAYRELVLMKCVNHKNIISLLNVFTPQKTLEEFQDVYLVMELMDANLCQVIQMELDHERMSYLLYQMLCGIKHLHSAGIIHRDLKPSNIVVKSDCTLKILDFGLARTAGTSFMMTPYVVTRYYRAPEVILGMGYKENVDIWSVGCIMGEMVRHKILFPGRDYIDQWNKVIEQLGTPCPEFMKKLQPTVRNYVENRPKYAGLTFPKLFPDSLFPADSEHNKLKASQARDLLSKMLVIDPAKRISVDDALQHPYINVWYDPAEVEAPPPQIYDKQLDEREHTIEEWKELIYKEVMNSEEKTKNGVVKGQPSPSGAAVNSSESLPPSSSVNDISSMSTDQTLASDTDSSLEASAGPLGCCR
Sequence of Glucose-6-phosphate 1-dehydrogenase (P11413 whole entry): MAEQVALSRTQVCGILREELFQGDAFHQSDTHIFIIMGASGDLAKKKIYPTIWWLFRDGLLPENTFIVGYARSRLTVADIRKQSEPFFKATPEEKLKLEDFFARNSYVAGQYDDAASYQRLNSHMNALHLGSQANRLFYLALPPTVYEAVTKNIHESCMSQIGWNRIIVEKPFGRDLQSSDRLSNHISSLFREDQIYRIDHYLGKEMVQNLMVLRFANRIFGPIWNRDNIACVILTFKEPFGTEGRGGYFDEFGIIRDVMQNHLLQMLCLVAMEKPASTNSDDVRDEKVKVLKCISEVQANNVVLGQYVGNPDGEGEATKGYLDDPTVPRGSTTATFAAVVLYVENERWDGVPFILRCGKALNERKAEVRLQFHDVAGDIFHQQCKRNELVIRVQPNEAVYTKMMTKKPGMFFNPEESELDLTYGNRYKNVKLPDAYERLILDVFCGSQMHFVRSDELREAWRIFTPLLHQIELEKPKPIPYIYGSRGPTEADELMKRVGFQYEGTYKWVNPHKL
Sequence of Protein Tat (P04608 whole entry): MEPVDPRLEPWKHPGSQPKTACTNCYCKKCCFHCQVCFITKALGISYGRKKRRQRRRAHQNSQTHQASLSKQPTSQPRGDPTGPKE

Structure (SMILES): Cc1ccc2c(C)nc(NC3=NCN(Cc4ccccc4)CN3)nc2c1
- IC50 [1]: > 93.1 µM (not active)

Structure (SMILES): CC1=CN2C(=N)/C(=C/c3ccc([N+](=O)[O-])o3)C(=O)N=C2S1
- AC50 [2]: 2.57 µM (active)
- AC50 (Caspase-6): 5.85 µM (active)
- IC50 (NS3): 9.08 µM (active)
- EC50 [3]: 23.8 µM (inactive)
- IC50 [4]: > 80 µM (inactive)
- EC50 [5]: 30.1 µM (inconclusive)
- EC50 [6]: > 99 µM (inactive)

Structure (SMILES): O=S(=O)(Cc1ccccc1)N(O)c1ccccc1
- IC50 [7]: 0.913 µM (active)

Structure (SMILES): CCN(C(=O)CN1CCN(c2ccc(O)cc2)CC1)c1c(N)n(Cc2ccccc2)c(=O)[nH]c1=O
- CC50 [8]: > 40 µM (active)
- IC50 (Protein Tat): 68.5 µM (inconclusive)
- IC50 (Large T antigen): 7.74 µM (active)

Structure (SMILES): CCC(C)N1C(=O)S/C(=C/c2ccc(Sc3nc4ccccc4[nH]3)o2)C1=O (configuration not stated)
- AC50 (Cytochrome P450 2D6): 3.98 µM (inconclusive)
- CC50 [8]: 28.7 µM (active)

Structure (SMILES): CC12C=CC(C)(O1)C1C(=O)N(c3ccc4c(c3)OCO4)C(=O)C12 (configuration not stated)
- IC50 [9]: > 56.8 µM (inactive)
- IC50 [10]: > 56.8 µM (inactive)

Structure (SMILES): O=C(NCCc1cccc(Cl)c1)c1cc(-c2ccco2)nc2ccccc12
- IC50 [9]: > 56.8 µM (inactive)
- IC50 [10]: > 56.8 µM (inactive)

Structure (SMILES): Nc1nnnn1/N=C/c1ccc(O)cc1
- IC50 (cells): 2.58 µM (active)

Structure (SMILES): CC(C)(C)[C@H]1CC[C@H](CC2=C(O)C(=O)c3ccccc3C2=O)CC1 [BUPARVAQUONE]
- IC50 [11]: 0.255 µM (active)
- IC50 [12]: 0.218 µM (active)
- IC50 [13]: 0.133 µM (active)
- IC50 [14]: > 10 µM (inactive)
- IC50 [15]: 0.205 µM (active)
- IC50 [16]: 3.39 µM (active)
- IC50 [17]: 0.227 µM (active)
- IC50 [18]: > 10 µM (inactive)
